Laboratory results reported in patent US20090111105A1 (priority 2007, published 2009).

Key:
androgen receptor (AR) = target: T1, androgen receptor (AR) (Homo sapiens, UniProt P10275); details: SH-SY5Y cells, 1f-pGI3 + pSG5AR, FIG. 8 and FIG. 10
T1 sequence (P10275 1-920): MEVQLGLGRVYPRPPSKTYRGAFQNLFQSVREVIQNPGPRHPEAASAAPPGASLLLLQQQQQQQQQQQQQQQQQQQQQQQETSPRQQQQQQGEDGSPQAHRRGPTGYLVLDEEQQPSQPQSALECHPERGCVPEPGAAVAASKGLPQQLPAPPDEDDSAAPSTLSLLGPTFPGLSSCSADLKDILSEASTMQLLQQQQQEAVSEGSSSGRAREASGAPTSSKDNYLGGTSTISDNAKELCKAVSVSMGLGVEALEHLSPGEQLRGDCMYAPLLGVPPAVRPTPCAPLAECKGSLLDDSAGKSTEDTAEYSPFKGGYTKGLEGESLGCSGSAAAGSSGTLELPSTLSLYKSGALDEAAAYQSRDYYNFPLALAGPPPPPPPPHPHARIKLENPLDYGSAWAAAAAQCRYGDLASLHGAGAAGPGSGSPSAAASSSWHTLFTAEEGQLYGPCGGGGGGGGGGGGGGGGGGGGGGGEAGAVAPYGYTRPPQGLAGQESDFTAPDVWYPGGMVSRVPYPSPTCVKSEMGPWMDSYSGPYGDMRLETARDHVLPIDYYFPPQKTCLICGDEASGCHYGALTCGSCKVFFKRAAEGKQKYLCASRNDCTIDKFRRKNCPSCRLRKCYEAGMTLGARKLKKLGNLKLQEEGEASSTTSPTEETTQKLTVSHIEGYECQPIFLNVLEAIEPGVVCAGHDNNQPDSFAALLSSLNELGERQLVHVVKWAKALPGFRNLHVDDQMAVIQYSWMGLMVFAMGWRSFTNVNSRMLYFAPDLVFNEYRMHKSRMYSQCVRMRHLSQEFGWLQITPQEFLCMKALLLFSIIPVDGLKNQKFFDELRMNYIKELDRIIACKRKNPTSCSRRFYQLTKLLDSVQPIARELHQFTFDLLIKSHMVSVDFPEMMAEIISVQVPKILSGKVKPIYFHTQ

male sexual behaviour = details: in comparison with testosterone; Arteaga-Silva et al. 2005; cited from earlier work
prostate = details: Arteaga-Silva et al. 2005; cited from earlier work

Compound	induction of reporter gene expression on the 1f-promoter (androgen receptor (AR))	action on male sexual behaviour (male sexual behaviour)	androgenic action on the prostate (prostate)
CCC(=O)O[C@H]1CC[C@H]2[C@@H]3CCC4=CC(=O)CC[C@]4(C)[C@H]3CC[C@]12C [testosterone propionate]	very potent stimulation		
C[C@]12CCC(=O)C[C@@H]1CC[C@@H]1[C@@H]2CC[C@]2(C)[C@@H](O)CC[C@@H]12 [DHT, dihydrotestosterone]		considerably less action	very strong androgen
